Experimental data taken from patent US20170027172A1, “USE OF SUBSTITUTE OXO TETRAHYDROQUINOLINE SULFONAMIDES OR SALTS THEREOF FOR RAISING STRESS TOLERANCE OF PLANTS” (BAYER CROPSCIENCE AKTIENGESELLSCHAFT, priority 2014, published 2017).

Tests used:
Brassica napus [1] = assay: Drought stress greenhouse test Part B, visual scoring vs stressed control plants; assay type: in vivo; set-up: key: 0: no effect; 10: slight positive effect; 20: clear positive effect; 30: strong positive effect; conditions: efficacy range of 2-3 pots
Procedure: (§1) Seeds of monocotyledonous and dicotyledonous crop plants were sown in sandy loam in plastic pots, covered with soil or sand and cultivated in a greenhouse under good growth conditions. The trial plants were treated at the early leaf stage (BBCH10-BBCH13). To assure uniform water supply before commencement of stress, the potted plants were supplied with water by dam irrigation prior to substance application.
(§2) The inventive compounds formulated in the form of wettable powders (WP) were sprayed onto the green parts of the plants as an aqueous suspension at an equivalent water application rate of 600 l/ha with addition of 0.2% wetting agent (e.g. agrotin). Substance application was followed immediately by stress treatment of the plants.
(§3) Drought stress was induced by gradual drying out under the following conditions:
(§4) “Day”: 14 hours with illumination at 26-30° C. “Night”: 10 hours without illumination at 18-20° C.
The duration of the respective stress phases was guided mainly by the condition of the stressed control plants. […]
(§5) Once this juncture had been reached, the appearance of the plants treated with test substances was recorded in comparison to the stressed control plants by the following categories:
For each substance and dosage, 2-3 pots were treated and evaluated. […]

Triticum aestivum [2] = assay: as above; assay type: in vivo; conditions: spray application 25 g/ha, efficacy range of 2-3 pots
Procedure: as §1, §2, §3, §4
(§6) The duration of the respective stress phases was guided mainly by the condition of the stressed control plants. It was ended (by re-irrigating and transfer to a greenhouse with good growth conditions) as soon as irreversible damage was observed on the stressed control plants.
(§7) The end of the stress phase was followed by an about 4-7-day recovery phase, during which the plants were once again kept under good growth conditions in a greenhouse. The duration of the recovery phase was guided mainly by when the trial plants had attained a state which enabled visual scoring of potential effects, and is therefore variable.
as §5
For each substance and dosage, 2-3 pots were treated and evaluated.
(§8) BRSNS=Brassica napus TRZAS=Triticum aestivum

[3] = target: T1, phosphatase ABI1 via the co-regulator RCAR11/PYR1 (Arabidopsis thaliana, UniProt O49686+P49597); assay: In vitro inhibition of the phosphatase ABI1 via the co-regulator RCAR11/PYR1, MUP dephosphorylation; assay type: biochemical; set-up: dose or concentration left out as unconfirmed; conditions: in a solution of DMSO and water; fluorescence at 460 nm
T1 sequence (O49686 1-191): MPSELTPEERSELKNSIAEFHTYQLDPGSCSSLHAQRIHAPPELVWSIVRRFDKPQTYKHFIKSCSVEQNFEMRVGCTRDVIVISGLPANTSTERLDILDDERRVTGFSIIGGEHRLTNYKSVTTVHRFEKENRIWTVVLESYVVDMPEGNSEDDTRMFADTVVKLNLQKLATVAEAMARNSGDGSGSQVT
T1 sequence (P49597 1-434): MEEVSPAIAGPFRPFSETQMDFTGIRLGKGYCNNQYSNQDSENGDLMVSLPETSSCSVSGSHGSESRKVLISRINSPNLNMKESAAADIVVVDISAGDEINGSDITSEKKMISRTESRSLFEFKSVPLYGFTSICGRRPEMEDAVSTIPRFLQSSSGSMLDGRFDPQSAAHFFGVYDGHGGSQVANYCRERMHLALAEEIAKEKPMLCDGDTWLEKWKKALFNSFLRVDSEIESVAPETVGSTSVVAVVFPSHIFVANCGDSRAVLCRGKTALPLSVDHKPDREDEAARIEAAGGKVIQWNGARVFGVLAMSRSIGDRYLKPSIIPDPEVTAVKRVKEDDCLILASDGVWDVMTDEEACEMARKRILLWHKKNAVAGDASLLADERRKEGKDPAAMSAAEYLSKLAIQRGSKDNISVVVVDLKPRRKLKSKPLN
How it was run: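 Arabidopsis ABI1 (0.15 μg/well) with RCAR11/PYR1 (0.30 μg/well) in Tris-HCl pH 8, NaCl, MnCl2, DTT, Tween20; MUP substrate, 20 min at 35 °C, fluorescence ex 340/em 460 nm. Compounds tested at 5 mM in DMSO/water, optionally pre-treated with porcine liver esterase; inhibition banded ≥90/70/50/30%.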

Triticum aestivum [4] = assay: Drought stress greenhouse test Part A, visual scoring vs stressed control plants; assay type: in vivo; set-up: key: 0: no effect; 10: slight positive effect; 20: clear positive effect; 30: strong positive effect; conditions: average score of 3 pots
Procedure: as §1, §2, §3
(§9) “Day”: 14 hours with illumination at ˜26-30° C. “Night”: 10 hours without illumination at ˜18-20° C.
as §6
as §7, with “and was” for “and is”
as §5
(§10) In order to rule out any influence on the effects observed by any fungicidal or insecticidal action of the test compounds, it was additionally ensured that the tests proceeded without fungal infection or insect infestation.
(§11) In each test, for each crop and dosage, plants in 3 pots were treated and evaluated separately. The values reported in Tables A-1 to A-2 below for the effects obtained are averages from the scores obtained.
as §8

Brassica napus [5] = assay: as above; assay type: in vivo; set-up: key: 0: no effect; 10: slight positive effect; 20: clear positive effect; 30: strong positive effect; conditions: spray application 250 g/ha, average score of 3 pots
Procedure: as §1, §2, §3, §9, §6
as §7, with “and was” for “and is”
as §5, §10, §11, §8

Brassica napus [6] = assay: Drought stress greenhouse test Part C, visual scoring vs stressed control plants; assay type: in vivo; set-up: key: 0: no effect; 10: slight positive effect; 20: clear positive effect; 30: strong positive effect; conditions: spray application 250 g/ha, efficacy range of 3-4 pots
Procedure: Seeds of monocotyledonous and dicotyledonous crop plants were sown in sandy loam in plastic or wood-fiber pots, covered with soil or sand and cultivated in a greenhouse under good growth conditions. The trial plants were treated at the early leaf stage (BBCH10-BBCH13). To assure uniform water supply before commencement of stress, the potted plants were supplied with water by dam irrigation prior to substance application. The inventive compounds were first formulated as wettable powders (WP) or dissolved in a solvent mixture. The further dilution was effected with water supplemented with 0.2% wetting agent (e.g. agrotin). The finished spray liquor was sprayed onto the green parts of the plant at an equivalent water application rate of 600 l/ha. Substance application was followed immediately by stress treatment of the plants. For this purpose, the wood-fiber pots were transferred in plastic inserts in order to prevent them from subsequently drying out too quickly. Drought stress was induced by gradual drying out under the following conditions: “Day”: 14 hours with illumination at 26-30° C. […] Once this juncture had been reached, the appearance of the plants treated with test substances was recorded in comparison to the stressed control plants by the following categories: [table] For each substance and dosage, 3-4 pots were treated and evaluated. […]

Compound | ABI1 inhibition [3] | Effect (BRSNS) (Brassica napus [5]) | further results
N#CCN1C(=O)CCc2cc(NS(=O)(=O)Cc3ccc(Br)cc3)ccc21 [A16-172] | – | – | Effect (BRSNS) (Brassica napus [1]; spray application 25 g/ha): 20; Effect (TRZAS) (Triticum aestivum [2]): 10-20
O=C1CCc2cc(NS(=O)(=O)Cc3ccc(F)cc3)ccc2N1CC1CC1 [A19-158] | ++++ (inhibition≧90%) | 20 | Effect (TRZAS) (Triticum aestivum [4]; spray application 25 g/ha): 20-30; Effect (TRZAS) (Triticum aestivum [4]; spray application 250 g/ha): 20-30
O=C1CCc2cc(NS(=O)(=O)Cc3ccc(C(F)(F)F)cc3)ccc2N1CC1CC1 [A19-178] | ++++ (inhibition≧90%) | 20 | –

Continued, in another order:

ABI1 inhibition [3] | Compound | Effect (BRSNS) (Brassica napus [5]) | further results
+++ (90%>inhibition≧70%) | O=C1CCc2cc(NS(=O)(=O)Cc3cc(F)cc(F)c3)ccc2N1CC1CC1 [A19-164] | – | Effect (BRSNS) (Brassica napus [1]; spray application 2.5 g/ha): 20
++++ (inhibition≧90%) | COCN1C(=O)CCc2cc(NS(=O)(=O)Cc3ccc(C(F)(F)F)cc3)ccc21 [A49-178] | – | Effect (BRSNS) (Brassica napus [6]): 20
